Literature values in article PMC3076957 (Chemico-biological interactions, 2008).
One block for each molecule: values may come before it.

What was measured:
[1] = molecular target: T1, AKR1C3 (Homo sapiens, UniProt P42330); assay: enzyme inhibition assay; conditions: read-out: IC50 values (μM) / AKR1C3
T1 sequence (P42330 1-323): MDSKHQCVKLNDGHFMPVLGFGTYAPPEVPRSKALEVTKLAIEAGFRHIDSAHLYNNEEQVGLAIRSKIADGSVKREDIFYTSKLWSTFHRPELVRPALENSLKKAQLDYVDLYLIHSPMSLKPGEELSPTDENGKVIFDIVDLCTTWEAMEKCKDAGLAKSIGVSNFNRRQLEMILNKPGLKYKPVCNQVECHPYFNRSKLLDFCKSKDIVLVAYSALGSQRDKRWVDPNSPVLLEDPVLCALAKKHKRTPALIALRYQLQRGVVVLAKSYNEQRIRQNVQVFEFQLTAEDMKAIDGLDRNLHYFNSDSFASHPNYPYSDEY

[2] = molecular target: AKR1C2 (Homo sapiens, UniProt P52895); conditions: read-out: IC50 values (μM) / AKR1C2
[3] = molecular target: T1, AKR1C3; assay: inhibition of androstenedione reduction, Lineweaver-Burk; format: biochemical
[4] = molecular target: T1, AKR1C3; assay: inhibition of […],10-phenanthrenequinone reduction; format: biochemical; conditions: read-out: IC50 values (μM) / AKR1C3

Sequence of AKR1C2 (P52895 whole entry): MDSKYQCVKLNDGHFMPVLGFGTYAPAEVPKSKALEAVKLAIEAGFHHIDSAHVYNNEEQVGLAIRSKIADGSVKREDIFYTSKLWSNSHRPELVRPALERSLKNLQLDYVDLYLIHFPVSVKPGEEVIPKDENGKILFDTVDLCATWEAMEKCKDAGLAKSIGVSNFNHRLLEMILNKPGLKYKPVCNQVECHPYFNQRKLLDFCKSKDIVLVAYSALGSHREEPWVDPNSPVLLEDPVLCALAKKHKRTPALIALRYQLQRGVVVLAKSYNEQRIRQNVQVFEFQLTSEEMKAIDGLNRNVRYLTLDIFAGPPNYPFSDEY

Ki [1]: 1.9 µM
Compound: O=C(O)c1ccc(C(=O)c2ccccc2)cc1 [4-Benzoyl-benzoic acid]

IC50 [2]: 1.2 µM
Compound: COc1ccc2cc([C@H](C)C(=O)O)ccc2c1 [Naproxen]

Ki [3]: 6000 nM
Compound: COc1ccc2c(c1)c(CCNC(C)=O)cn2C(=O)c1ccc(Cl)cc1 [CBM, N-(4-chlorobenzoyl)-melatonin]

IC50 [4]: 0.7 µM
Compound: Cc1ccc(Cl)c(Nc2ccccc2C(=O)O)c1Cl [Meclofenamic Acid]

Compound: O=C(O)c1ccc(Nc2ccc([N+](=O)[O-])cc2[N+](=O)[O-])cc1 [4-Carboxy-2′,4′-dinitrodiphenylamine]
Ki [1]: 0.38 µM
